The results in this text go back to patent US7960408B2, “Quinolinyl and benzothiazolyl modulators” (Amgen Inc., priority 2000, dated 2011).

Structures are written as SMILES.

As a reminder, the IC50 is the midpoint of a concentration-inhibition curve. A low value points to greater potency in that assay.

In this experiment the target is T1, PPARγ (Homo sapiens, UniProt P37231).
T1 construct: made in house
T1 sequence (P37231 1-505): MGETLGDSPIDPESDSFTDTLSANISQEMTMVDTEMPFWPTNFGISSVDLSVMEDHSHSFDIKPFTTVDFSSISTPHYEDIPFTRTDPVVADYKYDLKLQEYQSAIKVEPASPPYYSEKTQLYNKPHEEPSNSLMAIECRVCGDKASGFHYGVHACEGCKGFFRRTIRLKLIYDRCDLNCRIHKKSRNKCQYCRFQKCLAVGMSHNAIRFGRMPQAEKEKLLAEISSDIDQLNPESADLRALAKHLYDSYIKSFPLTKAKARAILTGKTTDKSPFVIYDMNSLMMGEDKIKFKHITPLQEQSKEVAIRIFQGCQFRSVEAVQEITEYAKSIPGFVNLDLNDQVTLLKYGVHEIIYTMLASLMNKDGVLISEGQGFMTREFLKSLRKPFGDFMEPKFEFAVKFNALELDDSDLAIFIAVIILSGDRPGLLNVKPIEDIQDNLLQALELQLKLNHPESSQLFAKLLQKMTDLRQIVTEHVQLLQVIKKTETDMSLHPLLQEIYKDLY
Nature of the experiment: PPARγ ligand binding assay utilizing [3H]-BRL 49653 as the radioligand. The settings on record: concentration required to reduce by 50% the specific binding of [3H]-BRL 49653. The source says:
The compounds of the present invention can be evaluated for modulation of the PPARγ receptor using assays such as those described in Jiang, et al., Nature 391:82-86 (1998), Ricote, et al., Nature 391:79-82 (1998) and Lehmann, et al., J. Biol. Chem. 270(12): 12953-12956 (1995). Alternatively, the compounds can be evaluated for their ability to displace radiolabeled BRL 49653 from a PPARγ-GST fusion protein as follows:
PPARγ-GST fusion protein (prepared according to standard procedures), [^3H]—BRL 49653 having 50 Ci/mmol specific activity, Polyfiltronics Unifilter 350 filtration plate and glutathione-Sepharose® beads (from Pharmacia: washed twice with 10× binding buffer in which BSA and DTI can be left out).
Binding buffer (10 mM Tris-HCl, pH 8.0, 50 mM KCI, 10 mM DTT, 0.02% BSA and 0.01% NP-40) is added in 80-μL amounts to the wells of the filtration plate. The test compound is then added in 10 μL of DMSO. The PPARγ-GST fusion protein and radiolabeled BRL compound are premixed in binding buffer containing 10 mM DTT and added in 10-μL amounts to the wells of the plate to provide final concentrations of 1 μg/well of PPARγ-GST fusion protein and 10 nM [^3H]—BRL 49653 compound. The plate is incubated for 15 min. Glutathione-agarose bead is added in 50 μL of binding buffer, and the plate is vigorously shaken for one hour. The plate is washed four times with 200 μL/well of binding buffer (without BSA and DTT). The bottom of the plate is sealed and 200 μL/well of scintillation cocktail is added. The top of the plate is then sealed and the radioactivity is determined.
IC50 values are defined as the concentration of test compounds required to reduce by 50% the specific binding of [^3H]—BRL 49653 and are represented by (+) <30 μM; (++) <10 μM; (+++) <1 μM.
As to `COc1ccc(OC)c(S(=O)(=O)Nc2cc(Cl)cc(Oc3nc4cc(Cl)ccc4s3)c2)c1` [Compound 502, N-[3-Chloro-5-(5-chloro-benzothiazole-2-yloxy)-phenyl]-2,5-dimethoxybenzenesulfonamide], the IC50 is above 30 µM.
The result for `CS(=O)(=O)Nc1ccc2nc(Oc3ccc(NS(=O)(=O)c4ccc(C(F)(F)F)cc4Cl)cc3Cl)sc2c1` [Compound 444, 2-Chloro-N-[3-chloro-4-(6-methanesulfonylamino-benzothiazol-2-yloxy)-phenyl]-4-trifluoromethyl-benzenesulfonamide] reads below 1 µM; that for `O=S(=O)(Nc1cc(Cl)cc(Oc2nc3c(Cl)cccc3s2)c1)c1ccc(C(F)(F)F)cc1Cl` [Compound 290, 2-Chloro-N-[3-chloro-5-(4-chloro-benzothiazol-2-yloxy)-phenyl]-4-trifluoromethyl-benzenesulfonamide], 10 to 30 µM.
Turning to `O=S(=O)(Nc1ccc(Oc2nc3c(Cl)cccc3s2)c(Cl)c1)c1ccc(C(F)(F)F)cc1Cl` [Compound 503, 2-Chloro-N-[3-chloro-4-(4-chloro-benzothiazol-2-oxy)-phenyl]-4-trifluoromethylbenzenesulfonamide], the IC50 fell in the range of 10 to 30 µM.
Turning to `COc1cccc2sc(Oc3c(Cl)cc(NS(=O)(=O)c4ccc(C(F)(F)F)cc4Cl)cc3Cl)nc12` [Compound 427, 2-Chloro-N-[3,5-dichloro-4-(4-methoxy-benzothiazol-2-yloxy)-phenyl]-4-trifluoromethyl-benzenesulfonamide], the IC50 was below 1 µM.
In turn, `Cc1cc(S(=O)(=O)Nc2cc(Cl)cc(Oc3nc4cc(C#N)ccc4s3)c2)c(Cl)cc1Cl` [Compound 288, 2,4-Dichloro-N-[3-chloro-5-(5-cyano-benzothiazol-2-yloxy)-phenyl]-5-methyl-benzenesulfonamide] registered a concentration for half-maximal inhibition (IC50) below 1 µM.
Turning to `O=[N+]([O-])c1ccc2nc(Oc3ccc(NS(=O)(=O)c4ccc(C(F)(F)F)cc4Cl)cc3Cl)sc2c1` [Compound 442, 2-Chloro-N-[3-chloro-4-(6-nitro-benzothiazol-2-yloxy)-phenyl]-4-trifluoromethyl-benzenesulfonamide], the IC50 is below 1 µM.
For `O=S(=O)(Nc1cc(Cl)c(Nc2nc3ccc(Cl)cc3s2)c(Cl)c1)c1ccc(Cl)cc1Cl` [Compound 71], the 50% inhibitory concentration (IC50) is below 1 µM.
As to `O=S(=O)(Nc1cc(Cl)c(Sc2cnc3ccccc3c2)c(Cl)c1)c1ccc(C(F)(F)F)cc1Cl` [Compound 4.3], the IC50 was below 1 µM.
The result for `O=S(=O)(Nc1cc(Oc2nc3cc(Cl)ccc3s2)cc(Oc2nc3cc(Cl)ccc3s2)c1)c1ccc(C(F)(F)F)cc1Cl` [Compound 322, N-[3,5-Bis-(5-chloro-benzothiazol-2-yloxy)-phenyl]-2-chloro-4-trifluoromethyl-benzenesulfonamide] reads 1 to 10 µM.
In the case of `O=[N+]([O-])c1ccc2sc(Oc3c(Cl)cc(NS(=O)(=O)c4ccc(C(F)(F)F)cc4Cl)cc3Cl)nc2c1` [Compound 455, 2-Chloro-N-[3,5-dichloro-4-(5-nitro-benzothiazol-2-yloxy)phenyl]-4-trifluoromethyl-benzenesulfonamide], the half-inhibitory concentration (IC50) fell in the range of 1 to 10 µM.
Regarding `O=S(=O)(Nc1cc(Cl)cc(Cc2nc3cc(Cl)ccc3s2)c1)c1ccc(Cl)cc1Cl` [Compound 332, 2,4-Dichloro-N-[3-chloro-5-(5-chloro-benzothiazol-2-ylmethyl)-phenyl]-benzenesulfonamide], the 50% inhibitory concentration (IC50) was below 1 µM.
Regarding `O=S(=O)(Nc1cc(Cl)c(Cc2cnc3ccccc3c2)c(Cl)c1)c1ccc(C(F)(F)F)cc1Cl` [Compound 231, 2-Chloro-N-(3,5-dichloro-4-quinolin-3-ylmethyl-phenyl)-4-trifluoromethyl-benzenesulfonamide], the IC50 was below 1 µM.
The compound `CC(C)(C)c1ccc(S(=O)(=O)Nc2cc(Cl)cc(Oc3nc4cc(Cl)ccc4s3)c2)cc1` [Compound 501, 4-tert-Butyl-N-[3-chloro-5-(5-chloro-benzothiazole-2-yloxy)]-benzenesulfonamide] displayed an IC50 above 30 µM.
In the case of `O=S(=O)(Nc1cc(Cl)c(Oc2nc3c(Cl)cccc3s2)c(Cl)c1)c1ccc(Cl)cc1Cl` [Compound 425, 2,4-Dichloro-N-[3,5-dichloro-4-(4-chloro-benzothiazol-2-yloxy)-phenyl]-benzenesulfonamide], the IC50 fell in the range of 1 to 10 µM.
The result for `O=S(=O)(Nc1cc(Cl)c(Oc2nc3ccc(Cl)cc3s2)c(Cl)c1)c1ccc(Br)cc1OC(F)(F)F` [Compound 433, 4-Bromo-N-[3,5-dichloro-4-(6-chloro-benzothiazol-2-yloxy)-phenyl]-2-trifluoromethoxy-benzenesulfonamide] reads below 1 µM.
Regarding `O=[N+]([O-])c1cc(C(F)(F)F)ccc1S(=O)(=O)Nc1cc(Cl)c(Oc2nc3ccc(Cl)cc3s2)c(Cl)c1` [Compound 435, N-[3,5-Dichloro-4-(6-chloro-benzothiazol-2-yloxy)-phenyl]-2-nitro-4-trifluoromethyl-benzenesulfonamide], the IC50 was below 1 µM.
`Cc1cc(S(=O)(=O)Nc2cc(Cl)cc(Oc3nc4cc(Cl)ccc4s3)c2)c(Cl)cc1Cl` [Compound 285, 2,4-Dichloro-N-[3-chloro-5-(5-chloro-benzothiazol-2-yloxy)-phenyl]-5-methyl-benzenesulfonamide]: the half-inhibitory concentration (IC50) was below 1 µM.
The same measure for `COc1cccc2sc(Oc3cc(Cl)cc(NS(=O)(=O)c4ccc(C(F)(F)F)cc4Cl)c3)nc12` [Compound 296, 2-Chloro-N-[3-chloro-5-(4-methoxy-benzothiazol-2-yloxy)-phenyl]-4-trifluoromethyl-benzenesulfonamide]: 1 to 10 µM; for `O=S(=O)(Nc1cc(Cl)cc(Oc2nc3cc(-c4nnn[nH]4)ccc3s2)c1)c1ccc(C(F)(F)F)cc1Cl` [Compound 289, 2-Chloro-N-{3-chloro-5-[5-(1H-tetrazol-5-yl)-benzothiazol-2-yloxy]-phenyl}-4-trifluoromethyl-benzenesulfonamide]: below 1 µM.
The same measure for `CS(=O)(=O)c1ccc2nc(Oc3ccc(NS(=O)(=O)c4ccc(C(F)(F)F)cc4Cl)cc3Cl)sc2c1` [Compound 445, 2-Chloro-N-[3-chloro-4-(6-methanesulfonyl-benzothiazol-2-yloxy)-phenyl]-4-trifluoromethyl-benzenesulfonamide]: below 1 µM; for `O=S(=O)(Nc1cc(Cl)c(Cc2cc3ccccc3cn2)c(Cl)c1)c1ccc(Cl)cc1Cl` [Compound 238, 2,4-Dichloro-N-(3,5-dichloro-4-isoquinolin-3-ylmethyl-phenyl)-benzenesulfonamide]: below 1 µM.
The same measure for `Cc1cccc2sc(Oc3c(Cl)cc(NS(=O)(=O)c4ccc(C(F)(F)F)cc4Cl)cc3Cl)nc12` [Compound 505, 2-Chloro-N-[3,5-dichloro-4-(4-methyl-benzothiazol-2-oxy)-phenyl]-4-trifluoromethylbenzenesulfonamide]: 10 to 30 µM; for `O=S(=O)(Nc1cc(Cl)c(Cc2ccc3ccccc3n2)c(Cl)c1)c1ccc(C(F)(F)F)cc1Cl` [Compound 224, 2-Chloro-N-(3,5-dichloro-4-quinolin-2-ylmethyl-phenyl)-4-trifluoromethyl-benzenesulfonamide]: below 1 µM; for `Cc1cc(S(=O)(=O)Nc2cc(Oc3nc4cc(Cl)ccc4s3)cc(Oc3nc4cc(Cl)ccc4s3)c2)c(Cl)cc1Cl` [Compound 324, N-[3,5-Bis-(5-chloro-benzothiazol-2-yloxy)-phenyl]-2,4-dichloro-5-methyl-benzenesulfonamide]: below 1 µM.
